According to the NIST ThermoML archive (doi:10.1021/je500381c):
± gives the expanded uncertainty stated by the source.

Experiment: refractive index (Na D-line) (dimensionless); xn = mol fraction of the nth substance listed
Settings: 100 kPa, Liquid, Standard Abbe refractometry

Question: Which refractive index (293.15 K, x1 = 0.1002) does the source give for `OCC1CCCCC1` [cyclohexylmethanol] + CC12CC3CC(C1)CC(C)(C3)C2 here?
Answer: Its refractive index is 1.4759 ± 0.001.

Question: What about the refractive index (293.15 K, x1 = 0.1995) of the same compound?
Answer: The refractive index was 1.4754 ± 0.001.

Question: What about the refractive index (293.15 K, x1 = 0.2996) of the same compound?
Answer: Its refractive index is 1.4742 ± 0.001.

Question: And the refractive index (293.15 K, x1 = 0.4004)?
Answer: Its refractive index is 1.4732 ± 0.001.

Question: And the refractive index (293.15 K, x1 = 0.4973)?
Answer: The refractive index was 1.4719 ± 0.001.

Question: And the refractive index (293.15 K, x1 = 0.6008)?
Answer: Its refractive index is 1.4705 ± 0.001.

Question: And the refractive index (293.15 K, x1 = 0.7002)?
Answer: The refractive index was 1.4692 ± 0.001.

Question: What about the refractive index (293.15 K, x1 = 0.7999) of the same compound?
Answer: The refractive index was 1.4673 ± 0.001.

Question: And the refractive index (293.15 K, x1 = 0.9)?
Answer: The refractive index was 1.4655 ± 0.001.

Question: And the refractive index (293.15 K, x1 = 1)?
Answer: Its refractive index is 1.4629 ± 0.001.

Question: What about the refractive index (298.15 K, x1 = 0.1002) of the same compound?
Answer: The refractive index was 1.4738 ± 0.001.

Question: And the refractive index (298.15 K, x1 = 0.1995)?
Answer: The refractive index was 1.4734 ± 0.001.

Question: What about the refractive index (298.15 K, x1 = 0.2996) of the same compound?
Answer: Its refractive index is 1.4722 ± 0.001.

Question: And the refractive index (298.15 K, x1 = 0.4004)?
Answer: Its refractive index is 1.4709 ± 0.001.

Question: And the refractive index (298.15 K, x1 = 0.4973)?
Answer: Its refractive index is 1.4698 ± 0.001.

Question: And the refractive index (298.15 K, x1 = 0.6008)?
Answer: Its refractive index is 1.4688 ± 0.001.

Question: And the refractive index (298.15 K, x1 = 0.7002)?
Answer: Its refractive index is 1.467 ± 0.001.

Question: What about the refractive index (298.15 K, x1 = 0.7999) of the same compound?
Answer: Its refractive index is 1.4653 ± 0.001.

Question: And the refractive index (298.15 K, x1 = 0.9)?
Answer: The refractive index was 1.4638 ± 0.001.

Question: What about the refractive index (298.15 K, x1 = 1) of the same compound?
Answer: The refractive index was 1.4612 ± 0.001.

Question: And the refractive index (303.15 K, x1 = 0.1002)?
Answer: The refractive index was 1.4716 ± 0.001.

Question: And the refractive index (303.15 K, x1 = 0.1995)?
Answer: Its refractive index is 1.4712 ± 0.001.

Question: What about the refractive index (303.15 K, x1 = 0.2996) of the same compound?
Answer: Its refractive index is 1.47 ± 0.001.

Question: What about the refractive index (303.15 K, x1 = 0.4004) of the same compound?
Answer: Its refractive index is 1.4689 ± 0.001.

Question: And the refractive index (303.15 K, x1 = 0.4973)?
Answer: The refractive index was 1.4679 ± 0.001.

Question: What about the refractive index (303.15 K, x1 = 0.6008) of the same compound?
Answer: Its refractive index is 1.4664 ± 0.001.

Question: What about the refractive index (303.15 K, x1 = 0.7002) of the same compound?
Answer: The refractive index was 1.4651 ± 0.001.

Question: And the refractive index (303.15 K, x1 = 0.7999)?
Answer: The refractive index was 1.4635 ± 0.001.

Question: And the refractive index (303.15 K, x1 = 0.9)?
Answer: The refractive index was 1.4617 ± 0.001.

Question: What about the refractive index (303.15 K, x1 = 1) of the same compound?
Answer: Its refractive index is 1.4592 ± 0.001.

Question: And the refractive index (313.15 K, x1 = 0.1002)?
Answer: The refractive index was 1.4673 ± 0.001.

Question: What about the refractive index (313.15 K, x1 = 0.1995) of the same compound?
Answer: Its refractive index is 1.4669 ± 0.001.

Question: And the refractive index (313.15 K, x1 = 0.2996)?
Answer: Its refractive index is 1.4656 ± 0.001.

Question: What about the refractive index (313.15 K, x1 = 0.4004) of the same compound?
Answer: The refractive index was 1.4645 ± 0.001.

Question: What about the refractive index (313.15 K, x1 = 0.4973) of the same compound?
Answer: Its refractive index is 1.4633 ± 0.001.

Question: What about the refractive index (313.15 K, x1 = 0.6008) of the same compound?
Answer: The refractive index was 1.462 ± 0.001.

Question: And the refractive index (313.15 K, x1 = 0.7002)?
Answer: Its refractive index is 1.4607 ± 0.001.

Question: What about the refractive index (313.15 K, x1 = 0.7999) of the same compound?
Answer: The refractive index was 1.4584 ± 0.001.

Question: And the refractive index (313.15 K, x1 = 0.9)?
Answer: Its refractive index is 1.4571 ± 0.001.

Question: What about the refractive index (313.15 K, x1 = 1) of the same compound?
Answer: The refractive index was 1.455 ± 0.001.

Question: And the refractive index (323.15 K, x1 = 0.1002)?
Answer: The refractive index was 1.4626 ± 0.001.

Question: What about the refractive index (323.15 K, x1 = 0.1995) of the same compound?
Answer: The refractive index was 1.4623 ± 0.001.

Question: What about the refractive index (323.15 K, x1 = 0.2996) of the same compound?
Answer: Its refractive index is 1.461 ± 0.001.

Question: And the refractive index (323.15 K, x1 = 0.4004)?
Answer: The refractive index was 1.4602 ± 0.001.

Question: What about the refractive index (323.15 K, x1 = 0.4973) of the same compound?
Answer: Its refractive index is 1.459 ± 0.001.

Question: What about the refractive index (323.15 K, x1 = 0.6008) of the same compound?
Answer: Its refractive index is 1.4575 ± 0.001.

Question: And the refractive index (323.15 K, x1 = 0.7002)?
Answer: The refractive index was 1.4564 ± 0.001.

Question: And the refractive index (323.15 K, x1 = 0.7999)?
Answer: The refractive index was 1.4548 ± 0.001.

Question: And the refractive index (323.15 K, x1 = 0.9)?
Answer: The refractive index was 1.4535 ± 0.001.

Question: What about the refractive index (323.15 K, x1 = 1) of the same compound?
Answer: The refractive index was 1.4507 ± 0.001.

Question: What about the refractive index (333.15 K, x1 = 0.1002) of the same compound?
Answer: Its refractive index is 1.4583 ± 0.001.

Question: And the refractive index (333.15 K, x1 = 0.1995)?
Answer: The refractive index was 1.4578 ± 0.001.

Question: What about the refractive index (333.15 K, x1 = 0.2996) of the same compound?
Answer: Its refractive index is 1.4565 ± 0.001.

Question: And the refractive index (333.15 K, x1 = 0.4004)?
Answer: Its refractive index is 1.4554 ± 0.001.

Question: And the refractive index (333.15 K, x1 = 0.4973)?
Answer: The refractive index was 1.4544 ± 0.001.

Question: And the refractive index (333.15 K, x1 = 0.6008)?
Answer: Its refractive index is 1.4529 ± 0.001.

Question: What about the refractive index (333.15 K, x1 = 0.7002) of the same compound?
Answer: The refractive index was 1.4514 ± 0.001.

Question: And the refractive index (333.15 K, x1 = 0.7999)?
Answer: Its refractive index is 1.45 ± 0.001.

Question: And the refractive index (333.15 K, x1 = 0.9)?
Answer: The refractive index was 1.4488 ± 0.001.

Question: What about the refractive index (333.15 K, x1 = 1) of the same compound?
Answer: The refractive index was 1.4463 ± 0.001.
